Measurements published in patent US7687491B2, “Heterocyclic compound” (Daiichi Sankyo Company, Limited, priority 2005, dated 2010).
Structures can show the parent of a compound that is named as a salt.

Tested on: host-versus-graft reaction (HvGR) in the rat
Test: Inhibitory activity against host-versus-graft reaction (HvGR) in the rat (popliteal lymph node weight)
Type: in vivo
Conditions: po, 1 mg/kg orally once daily for 4 successive days, Lewis rats injected with WKAH/Hkm spleen cells, weight of popliteal lymph nodes vs control group, read-out: Inhibition Rate (%, 1 mg/kg of administration)
Description: Determination of Inhibitory Activities of the Compound Against Host-Versus-graft Reaction (HvGR) in the Rat
(1) Two strains of rats [Lewis rats (male, 6 weeks of age, Charles River Japan Inc.) and WKAH/Hkm rats (male, 7 weeks of age, Japan SLC Inc.)] were used. Five rats (host) per group were used.
Spleen cells were isolated from the spleens of WKAH/Hkm rats or Lewis rats and floated in RPMI1640 medium (Life Technologies Inc.) at a concentration of 1×10^8 cells/ml. A 0.1-ml aliquot of the medium containing the free-floating spleen cells (1×10^7 cells) of WKAH/Hkm rats or Lewis rats was then intradermally injected into the bilateral foot pads of the hindlimbs of both sides of Lewis rats.
(3) Administration of Test Compound
The test compound was suspended in 0.5% tragacantha solution. The suspended solution of a compound of the present invention (5 ml/kg of body weight of the rat) was orally administered to rats of the drug-treated group (the Lewis rats in which spleen cells of WKAH/Hkm rats were injected and the test compound was administered) once daily for 4 successive days starting on the day of the spleen cell injection. Furthermore, tragacantha solution (0.5%) instead of the test substance was orally administered to rats in the “same strain group” (Lewis rats injected with spleen cells of Lewis rats) and the control group (Lewis rats injected with spleen cells of WKAH/Hkm rats and not treated with the test compound).
(4) Determination of Inhibitory Activity Against HvGR
The average weight of the popliteal lymph nodes of the same strain rats was subtracted from the individual weights of the popliteal lymph nodes of individual rats (“weight of the popliteal lymph nodes after HvGR-induction”). The inhibitory activity of a compound was calculated from the “weight of the popliteal lymph nodes after HvGR induction” of individual rats in the drug-treated group versus the average “weight of the popliteal lymph nodes after HvGR induction” in the control group.

Row | SMILES | inhibition in vivo at 1 mg/kg
1 | CCc1cc(CN2CC(C(=O)O)C2)sc1-c1noc(-c2ccc(Oc3ccccc3F)cc2)n1 [Example 10, 1-[(4-Ethyl-5-{5-[4-(2-fluorophenoxy)phenyl]-1,2,4-oxadiazol-3-yl}-2-thienyl)methyl]azetidine-3-carboxylic acid 1/2 oxalate] | 61.8%
2 | Cc1cc(CN2CC(C(=O)O)C2)sc1-c1noc(-c2ccc(Oc3ccccc3)c(F)c2)n1 [Example 11, 1-({5-[5-(3-Fluoro-4-phenoxyphenyl)-1,2,4-oxadiazol-3-yl]-4-methyl-2-thienyl}methyl)azetidine-3-carboxylic acid] | 51.6%
3 | Cc1cc(CN2CC(C(=O)O)C2)sc1-c1noc(-c2ccc(Oc3ccccc3)cc2)n1 [Example 12, 1-({4-Methyl-5-[5-(4-phenoxyphenyl)-1,2,4-oxadiazol-3-yl]-2-thienyl}methyl)azetidine-3-carboxylic acid] | 55.4%
4 | CCc1cc(CN2CC(C(=O)O)C2)sc1-c1noc(-c2ccc(Oc3ccccc3)cc2)n1 [Example 13, 1-({4-Ethyl-5-[5-(4-phenoxyphenyl)-1,2,4-oxadiazol-3-yl]-2-thienyl}methyl)azetidine-3-carboxylic acid] | 61.3%
5 | CCc1cc(CN2CC(C(=O)O)C2)sc1-c1noc(-c2ccc(Oc3ccccc3)c(F)c2)n1 [Example 14, 1-({4-Ethyl-5-[5-(3-fluoro-4-phenoxyphenyl)-1,2,4-oxadiazol-3-yl]-2-thienyl}methyl)azetidine-3-carboxylic acid] | 65.6%
6 | CCc1cc(CN2CC(C(=O)O)C2)sc1-c1noc(-c2ccc(Oc3cccc(F)c3)cc2)n1 [Example 17, 1-[(4-Ethyl-5-{5-[4-(3-fluorophenoxy)phenyl]-1,2,4-oxadiazol-3-yl}-2-thienyl)methyl]azetidine-3-carboxylic acid] | 65%
7 | CC(C)Cc1ccc(-c2nc(-c3ccc(CN4CC(C(=O)O)C4)nc3)no2)cc1Cl [Example 26, 1-({5-[5-(3-Chloro-4-isobutylphenyl)-1,2,4-oxadiazol-3-yl]pyridin-2-yl}methyl)azetidine-3-carboxylic acid] | 80%
8 | Cc1cc(-c2nc(-c3ccc(CN4CC(C(=O)O)C4)nc3C)no2)ccc1CC(C)C [Example 27, 1-({5-[5-(4-Isobutyl-3-methylphenyl)-1,2,4-oxadiazol-3-yl]-6-methylpyridin-2-yl}methyl)azetidine-3-carboxylic acid 1/2 oxalate] | 80.6%
9 | Cc1cc(-c2nc(-c3ccc(CN4CC(C(=O)O)C4)nc3)no2)ccc1CC(C)C [Example 28, 1-({5-[5-(4-Isobutyl-3-methylphenyl)-1,2,4-oxadiazol-3-yl]pyridin-2-yl}methyl)azetidine-3-carboxylic acid 1/2 oxalate] | 77.5%
10 | CCc1nc(CN2CC(C(=O)O)C2)ccc1-c1noc(-c2ccc(CC(C)C)c(C)c2)n1 [Example 29, 1-({6-Ethyl-5-[5-(4-isobutyl-3-methylphenyl)-1,2,4-oxadiazol-3-yl]pyridin-2-yl}methyl)azetidine-3-carboxylic acid] | 83.5%
11 | CC[C@H](C)Oc1ccc(-c2nc(-c3ccc(CN4CC(C(=O)O)C4)cc3)no2)cc1 [Reference Compound 1, reference compound] | -15.5%
12 | O=C(O)C1CN(Cc2ccc(-c3noc(-c4ccc(OC5CCC5)cc4)n3)cc2)C1 [Reference Compound 2, reference compound] | -19%
